Measured values: patent US20030114375A1, “Method for treating cystic fibrosis” (The Government of the USA, Dept of Health and Human …, priority 1994, published 2003)
“And” between values parts separate entries of the source, which are not always exact repeats. Equal values may be shown once. Read-outs that look alike come from different tables or passages of the source.

How the values were obtained:
[1] = molecular target: T1, CFTR polypeptide Iα [SEQ ID NO:1] (Homo sapiens, UniProt P13569); assay: 3H-CPX binding to Iα polypeptide (dot blot filter binding, displacement)
T1 construct: made in house; host or cells: chemical solid-phase synthesis (Yale University)
Experimental: CPX was used as a representative compound known to activate chloride ion efflux from ΔF508 mutant cells. Stock solutions of CPX were prepared in DMSO in the millimolar concentration range. […] For displacement studies, unlabeled CPX, or other xanthine antagonists and nucleotides, were added to the incubation mixture before the radioactive probe. The mixture was then filtered through a nitrocellulose (NC) membrane (Schleicher & Schuell) by using a standard dot blot apparatus. […] The dot blots were then washed five times with 200 μl TRIS buffer-NaCl solutions (50 mM TRIS pH=7.0, 150 mM NaCl), radioactive spots were cut out, and the total was radioactivity determined by liquid scintillation counting.

[2] = molecular target: T2, Iα polypeptide (Homo sapiens, UniProt P13569); assay: Phosphatidylserine liposome aggregation driven by Iα polypeptide; assay type: biochemical; conditions: 0.5 μg/ml (0.18 μM) Iα; for Effect on PS liposome aggregation driven by Iα: 2-thio-CPX up to 1 μM, IBMX up to 15 μM
T2 construct: made in house; host or cells: chemical solid-phase synthesis (Yale University)
Experimental: Liposome aggregation assay: Phosphatidylserine (“PS”, obtained from Avanti) was dissolved in chloroform, and small unilamellar liposomes were prepared by the extrusion process known in the art. A Lipex machine was used to extrude the PS in a buffer consisting of 10 mM Na-HEPES, pH 7.2 and 1 mM EDTA. The liposomes were diluted to a final optical density at 540 nm of 0.01 and incubated with different concentrations of the different polypeptides and/or chloride ion efflux-activating compounds.

[3] = molecular target: T3, A2a-adenosine receptor (Rattus norvegicus, UniProt P30543); assay: Inhibition of [3H]CGS 21680 binding to A2a receptors; conditions: rat striatal membranes, 5 nM [3H]CGS 21680; read-out: Ki, μM(A2)
T3 construct: Rat cerebral cortical membranes and striatal membranes were prepared; from tissue; host or cells: rat striatal membranes
Experimental: (§1) Solid samples of the adenosine derivatives were dissolved in dimethyl sulfoxide (DMSO) and stored in the art at. −20° C. The stock solutions were diluted with DMSO to a concentration of ≦0.1 mM prior to addition to the aqueous medium. The final concentration of DMSO in the assay medium was generally 2%.
Membranes (^˜80 μg protein per tube) were incubated for one hour at 25° C. in a total volume of 0.5 ml of a buffer solution consisting of […] tris hydrochloride and 10 mM MgCl2 at pH 7.4. Test drugs were dissolved in DMSO and added in 10 μl aliquots, resulting in a final DMSO concentration of 2%. Non-specific binding was defined using 20 μM 2-chloroadenosine. Filtration was carried out using a Brandel Cell Harvester, as above, using the tris.HCl/MgCl2 buffer recited hereinabove as the washing buffer.
(§2) At least six different concentrations spanning three orders of magnitude, adjusted appropriately for the IC50 of each compound, were used.

[4] = tested on: CFPAC cells; conditions: read from the graphs
[5] = tested on: CFPAC cells; assay: [36Cl]- efflux from CFPAC cells
[6] = tested on: CFPAC cells; conditions: U.S. Pat. No. 5,366,977 / Eidelman et al.; cited from earlier work
[7] = molecular target: T4, A1-adenosine receptor (Rattus norvegicus, UniProt P25099); assay: Inhibition of [3H]N6-phenylisopropyladenosine binding to A1 receptors; conditions: for Ki: rat cerebral cortex membranes, 1 nM [3H]PIA, read-out: Ki, μM(A1)
T4 construct: Rat cerebral cortical membranes and striatal membranes were prepared; from tissue; host or cells: rat cerebral cortex membranes
T4 sequence (P25099 1-326): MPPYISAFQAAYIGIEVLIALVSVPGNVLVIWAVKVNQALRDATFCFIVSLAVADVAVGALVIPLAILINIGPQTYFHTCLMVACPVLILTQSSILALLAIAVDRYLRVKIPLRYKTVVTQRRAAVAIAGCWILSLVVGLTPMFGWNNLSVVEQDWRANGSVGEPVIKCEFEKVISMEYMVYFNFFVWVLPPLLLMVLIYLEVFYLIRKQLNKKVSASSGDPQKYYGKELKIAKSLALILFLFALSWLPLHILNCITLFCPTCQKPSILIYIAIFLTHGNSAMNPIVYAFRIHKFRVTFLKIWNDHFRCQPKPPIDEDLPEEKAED
Experimental: as §1
Inhibition of binding of 1 nM [^3H]N^6-phenylisopropyladenosine (Dupont NEN, Boston, Mass.) to A1 receptors in rat cerebral cortex membranes was measured as described in Schwabe et al., Naunyn-Schmiedeberg's Arch. […] Membranes (^˜100 μg protein per tube) were incubated for 1.5 hours at 37° C. in a total volume of 0.5 ml of 50 mM tris hydrochloride at pH 7.4. Test drugs were dissolved in DMSO and added in 10 μl aliquots, resulting in a final DMSO concentration of 2%. Bound and free radioligand were separated by addition of 3 ml of a buffer containing 50 mM tris hydrochloride, at pH 7.4 at 5° C., followed by vacuum filtration using a Brandel Cell Harvester (Brandel, Gaithersburg, Md.) and a Whatman GF/B glass fiber filter with additional washes totaling 9 ml of buffer. Non-specific binding was determined with 10 μM 2-chloroadenosine.
as §2

T1 sequence (P13569 with tags, fused parts or gaps): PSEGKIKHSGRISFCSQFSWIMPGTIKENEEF
T2 sequence (P13569 with tags, fused parts or gaps): as above
T3 sequence (P30543 whole entry): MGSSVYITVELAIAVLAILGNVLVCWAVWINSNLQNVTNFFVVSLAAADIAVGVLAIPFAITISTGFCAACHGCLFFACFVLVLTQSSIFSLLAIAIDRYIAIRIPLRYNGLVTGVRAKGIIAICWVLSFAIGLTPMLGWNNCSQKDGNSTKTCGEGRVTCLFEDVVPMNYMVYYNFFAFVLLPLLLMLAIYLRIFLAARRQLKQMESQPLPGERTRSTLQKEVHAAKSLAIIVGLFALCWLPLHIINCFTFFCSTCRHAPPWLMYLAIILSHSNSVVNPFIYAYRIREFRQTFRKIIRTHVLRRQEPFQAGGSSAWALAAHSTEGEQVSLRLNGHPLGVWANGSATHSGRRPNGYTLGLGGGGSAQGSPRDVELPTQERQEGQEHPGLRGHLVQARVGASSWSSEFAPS

Molecule | Displacement of 3H-CPX binding to Iα [1] | Effect on PS liposome aggregation driven by Iα [2] | Ki [3] [µM] | Efflux rate as compared to control (FIGS. 9-12) [4] [%] | Conc. max. (nM): concentration at maximum impact upon chloride efflux [5] | thresh (nM): minimum concentration required to detect an effect upon chloride efflux [5] [nM] | Kd ([1]; Scatchard plot, n=4, 100 nM Iα) [nM] | Activation of chloride efflux from CF cells (words, prior disclosure) [6] | Concentration at maximum rate and extent of Iα-driven liposome aggregation [2] [nM] | Efflux rate as compared to control (FIGS. 9-12) ([5]; read from the graphs) [%] | Affinity for A1 receptor [7] | Ki [7] [µM] | % control: chloride efflux at minimum detection relative to control ([5]; at threshold concentration)
3-isobutylmethyl xanthine [Compound 3] | not effected | entirely inactive | 16 |  |  |  |  |  |  |  |  |  | 
Cn1c(=O)c2[nH]cnc2n(C)c1=O [Compound 1, theophylline, reference compound] |  |  |  | 200 | 100 nM | 1 |  |  |  |  |  |  | 
CCCn1c(=O)c2[nH]c(C3CCCC3)nc2n(CCC)c1=O [Compound 5, 1,3-dipropyl-8-cyclopentylxanthine, reference compound] | Displacement of binding was effected |  |  |  | 30 nM | 1 | 69 ± 27 | promotes chloride efflux | 100 | 200 | high affinity |  | 
CCCn1c(=O)c2[nH]c(C3CCCC3)nc2n(CCC)c1=S [Compound 8, 2-thio-8-cylcopentyl-1,3-dipropylxanthine, reference compound] | not effected | entirely inactive | 0.31 |  | >>10^4 nM |  |  | ineffective |  |  |  | 0.00066 | 
CCCn1c(=O)c2[nH]c(C34CC5CC(CC3C5)C4)nc2n(CCC)c1=O [Compound 12, 1,3-dipropyl-8-noradamantylxanthine, reference compound] |  |  | 0.38 |  | 10 nM | 1 |  | ineffective |  |  |  | 0.0013 | 120% and 120 ± 5%
